Test results taken from patent US20210113687A1, “METHODS FOR TREATING INFLAMMATION” (NEW YORK UNIVERSITY, priority 2013, published 2021).
Values belong to the compound of their own block, whether it stands above or below them.

Key:
[1] = tested on: human Netrin-1 promoter luciferase reporter construct; assay: Netrin-1 promoter-luciferase assay in HEK293T; type: cell-based; settings: BAY 11-7082 20 μM pretreatment
Description: Netrin-1 Promoter-Luciferase MMV HEK293T were transfected with a human Netrin-1 promoter luciferase reporter construct (SwitchGear Genomics) using Lipofectamine™ 2000 (Invitrogen). After transfection, media was changed and cells were pretreated with the NFKB inhibitor BAY 11-7082 (20 μM) for 1 hour prior stimulation with 100 μg/ml oxLDL or PBS as a control for 24 hours. Luciferase activity was assessed using the Dual-Glo Luciferase Assay System (Promega) and normalized to a constitutively expressed Renilla reporter.

BMDMs [2] = assay: qPCR of macrophages under hypoxic stress; type: cell-based, mouse
Description: Primary bone marrow derived macrophage (BMDM) were prepared by flushing the bone marrow of the tibia and femur of 6-8 week old C57/B6 mice as described (The cells were grown in DMEM supplemented with 15% L929-conditioned media, 10% FBS and 1% penicillin/streptomycin for 7 days and then treated with oxLDL or subjected to hypoxic conditions. Hypoxic incubations were carried out at 37° C. in a Billups-Rothenberg modular incubator chamber at 1% O2, 5% CO2 and 94% N2 for 24 hours. J774 control (J774con) and HIF-1α overexpressing (J774Hif) macrophages (Parathath et al., Circ. Res. 2011; 109:1141-1152) were grown in 5.5 mmol/L glucose containing DMEM supplemented with 15% FBS and 1% penicillin/streptomycin.
Total RNA was isolated using TRIZOL reagent and RNA ([…]) was reverse transcribed with an iScript cDNA Synthesis kit according to the manufacturer's instructions (Bio-Rad). RT-PCR analysis was performed using iQ SYBR green Supermix (Biorad) and a Mastercycler Realplex (Eppendorf) as we described (van Gils et al., Nat Immunol, 2012; 13:136-143). The change in mRNA expression was calculated by the comparative change-in-cycle-method (DDCT) relative to GAPDH mRNA levels. The following primer sets were used;

BMDMs [3] = assay: Apoptotic assays of growth-factor deprived BMDM (TUNEL, active caspase-3); type: cell-based, mouse
Description: To induce apoptosis, BMDMs were grown in foe absence of L929 conditioned media (CM) for 3 days under normoxic or hypoxic conditions. In some assays, cells were treated with 100 μmol/L HIF-1α inhibitor or Unc5b-FC fragment or control IgG. After treatment, apoptotic cells were labeled with PE-active caspase-3 (557091, BD pharmingen) or by the TUNEL method using an in situ cell detection kit (Roche Diagnostics). Active Caspase-3, TUNEL and DAPI staining were analyzed with a Nikon Eclipse fluorescent microscope. Only TUNEL positive cells that colocalized with DAPI stained nuclei were considered apoptotic.

[4] = tested on: Human NTN1 promoter-luciferase reporter; assay: NTN1 promoter luciferase assay (Example 2); type: cell-based
Description: (§1) Human NTN1 or UNC5B promoter-luciferase reporter plasmids (Switchgear Genomics) were transfected into HEK293T using Lipofectamine™ 2000 (11668-019, Invitrogen). After transfection, media was changed and cells were treated with oxLDL (50 μg/ml) or CoCl2 (0.1 mM), or DMOG (1 mmol/1) for 24 hours, in the presence or absence (PBS control) of inhibitors of NFκB (10 μmol/L Bay11-7082) or HIF1α (100 μmol/L HIF-1α inhibitor). Luciferase activity was measured using foe DUAL-Glo Luciferase Assay system (E1910, Promega) and normalized to a constitutively expressed renilla reporter or to protein concentration.

[5] = tested on: Human UNC5B promoter-luciferase reporter; assay: UNC5B promoter luciferase assay (Example 2); type: cell-based; settings: treatment with HIF-1α inhibitor
Description: as §1

[6] = tested on: human Unc5H2 promoter-luciferase reporter; assay: Unc5H2 promoter-luciferase assay (Example 4); type: cell-based; settings: pretreating with NFkB inhibitor
Description: (§2) Promoter-Luciferase assays. HEK293T cells were transfected with human NTNI or Unc5H2 promoter-luciferase reporter constructs (SwitchGear Genomics) using Lipofectamine™ 2000 (11668-019, Invitrogen) After transfection, media was changed and cells were treated with palmitate or BSA for 24 hours, in the presence or absence of the NFkB inhibitor BAY 11-7082 (10 μmol/L). Luciferase activity was measured using the DUAL-Glo Luciferase Assay system (E1910, Promega).

[7] = tested on: human NTNI promoter-luciferase reporter; assay: NTN1 promoter-luciferase assay (Example 4); type: cell-based; settings: pretreating with NFkB inhibitor
Description: as §2

BMDM [8] = assay: netrin-1 ELISA of BMDM supernatants; type: cell-based, mouse; settings: blocking NFkB
Description: (§3) Cell culture. Primary bone marrow derived macrophage (BMDM) was prepared by flushing the bone marrow of the tibia and femur of 6-8 week old C57/B6 mice. The cells were grown in DMEM supplemented with 15% L929-conditioned media, 10% FBS and 1% penicillin/streptomycin for 7 days. BMDM were stimulated 250 pM palmitate conjugated with BSA or BSA as a control for 24 hours, or TNFα (10 ng/ml, 410-MT-010; R&D systems), IL-6 (40 nglml, 406-ML-005; R&D systems) and IL-4 (1 Onglml, 404-ML-010; R&D systems) for 24 h. In some assays, differentiated BMDM were treated with conditioned media from 3T3-L1 adipocytes differentiated as described (Lin, et al., J Biol Chem, 2005; 280:4617-4626) and treated with 250 pM palmitate conjugated with BSA or BSA for 24 hours. In certain experiments, anti-TNFα (0.4 μg/ml, AF-410-NA, R&D systems) or anti-IL-6 (0.025 μg/ml, MAB406; R&D systems) blocking antibody or IgG control (Normal Goat IgG: AB-108-C, Rat IgG1: MAB005; R&D systems) was added to conditioned media. […]
ELISA assay. Insulin (90080; crystal Chem Inc), adiponectin (ab108785; Abeam), FFA (SFA-1; Zen Bio), TNFa (88-7064-76; ebiosciences) and netrin-1 (E91827Mu; USCN life science Inc) levels were measured in the serum using mouse standards according to manufacturer's guidelines. Netrin-1 in human serum was measured using a human-specific netrin-1 ELISA from USCN Life Science Inc (700176; mybiosource).

BMDM [9] = assay: qRT-PCR of BMDM (palmitate, cytokines, adipocyte conditioned media); type: cell-based, mouse; settings: direct addition of cytokine
Description: Real-time Quantitative RT-PCR Analysis RNA (0.5-1 μg) was reverse transcribed using iScript™ cDNA Synthesis Kit (Biorad) and RT-PCR analysis was conducted using kapa SYBR green Supermix (kappa syber) and a Mastercycler Realplex (Eppendorf) the primers used are listed. Fold change in mRNA expression was calculated using the comparative cycle method (ΔΔCt).
Cell culture. Primary bone marrow derived macrophage (BMDM) was prepared by flushing the bone marrow of the tibia and femur of 6-8 week old C57/B6 mice. The cells were grown in DMEM supplemented with 15% L929-conditioned media, 10% FBS and 1% penicillin/streptomycin for 7 days. BMDM were stimulated 250 pM palmitate conjugated with BSA or BSA as a control for 24 hours, or TNFα (10 ng/ml, 410-MT-010; R&D systems), IL-6 (40 nglml, 406-ML-005; R&D systems) and IL-4 (1 Onglml, 404-ML-010; R&D systems) for 24 h. In some assays, differentiated BMDM were treated with conditioned media from 3T3-L1 adipocytes differentiated as described (Lin, et al., J Biol Chem, 2005; 280:4617-4626) and treated with 250 pM palmitate conjugated with BSA or BSA for 24 hours. In certain experiments, anti-TNFα (0.4 μg/ml, AF-410-NA, R&D systems) or anti-IL-6 (0.025 μg/ml, MAB406; R&D systems) blocking antibody or IgG control (Normal Goat IgG: AB-108-C, Rat IgG1: MAB005; R&D systems) was added to conditioned media. Peritoneal macrophages were isolated as described (van Gils, et al., Nat Immunol, 2012; 13:136-143). Mice were injected intraperitoneally with 1 ml of 3% (wt/vol) thioglycolate to elicit sterile sterile peritonitis with macrophage numbers peaking on day 4. Cells were collected by lavage and used for migration assays.
Palmitate-BSA preparation. Sodium palmitate (P9767; Sigma Aldrich) was dissolved in sterile water in to make a 100-mM solution by alternating heating and vortexing until the palmitate was dissolved. Thu occurred once the solution reached 70 C. […]

Rac1 = Rac1 activation assay; type: cell-based, mouse; settings: MCP-1 stimulation, within 5 minutes
Description: Rac1 activation assays Peritoneal macrophages were seeded in a 6-well plate overnight in regular growth media. The cells were stimulated with MCP-1 (10 ng/ml R&D systems) for 5 minutes with or without a pretreatment with mouse recombinant netrin-1 (250 ng/ml, R&D Systems) for 30 minutes. At the end of stimulation the cells were lysed and Rac1-GTP levels were measured using Rac1 Activation Assay (Cell Biolabs) according manufacturer's instructions.

BMDM [10] = assay: BMDM migration towards MCP-1 (xCelligence); type: cell-based, mouse; settings: treatment with Unc5b-FC
Description: (§4) Macrophage chemotaxis was measured using the Real-Time Cell Invasion and Migration xCelligence Assay System with monitoring every 3 min (Roche Applied Science). BMDM migration towards MCP-1 (100 ng/ml; R&D Systems) was measured in the presence or absence of oxLDL (50 μg/ml) and/or recombinant rat UNC5b-Fc chimera (1006-UN; R&D Systems) to block the effects of netrin-1. In a subset of experiments, cells were pre-treated with 0.1 mmol/L CoCl2 for 1 h prior to migration. J774 macrophage migration was carried out in the presence or absence of UNC5b-Fc chimera. Results of chemotaxis assays are representative of at least three independent experiments performed on triplicate samples.

[11] = tested on: mouse peritoneal macrophages; assay: Migration assay of peritoneal macrophages (pMø); type: cell-based; settings: for inhibitory effect of netrin-1 on CCL19-induced migration: macrophages pre-incubated with agent
Description: Migration assays. Chemotaxis of macrophages (pMø, RAW264.7) and CaSMC was measured in 96-well Boyden chamber with a 5 μm (macrophages) or 8 μm pore size filter (CaSMC) (Neuro Probe) as previously described (Ly, et al., Proc Natl Acad Sci USA, 2005, 102: 14729-14734). Macrophage chemotaxis was also quantified using a Real-time Cell Invasion and Migration (RT-CIM)×Celligence assay system with monitoring every 5 min (Roche Applied Science). […] In some assays, cells were pretreated with netrin-1 or UNC5b blocking antibody (AF1006, R&D Systems) or Neogenin blocking antibody (Santa Cruz, sc-6537) or control goat IgG (Santa Cruz) for 1 hour prior to migration. Following cell migration for 3 or 16 hours (CaSMC and macrophages, respectively), four random high power fields from each well were counted to determine the number of cells that had migrated into the lower chamber. Migration was expressed as chemotactic index, which was calculated by dividing the number of migrating cells in the treated groups by the number of migrating cells in the lowest control well. Results of chemotaxis assays are representative of at least three independent experiments performed on triplicate samples.

J774Hif macrophages = assay: J774 macrophage migration (xCelligence); type: cell-based, mouse; settings: treated with Unc5b-FC, no exogenous chemokine
Description: as §4

peritoneal macrophages = assay: Migration of palmitate-treated peritoneal macrophages to CCL19; type: cell-based, mouse; settings: addition of Unc5b-FC
Description: as §3, with “media. Peritoneal macrophages were isolated as described (van Gils, et al., Nat Immunol, 2012; 13:136-143).” for “media.”
Migration. The migration of ATM or peritoneal macrophages to CCL19 (500 ng/ml; R&D Systems) was assessed by the xCelligence Real-time Cell Invasion and Migration system (ACEA biosciences Inc) that monitored chemotaxis every 5 minutes for over 6 h. […]

Compound: COC(=O)c1ccc(O)c(NC(=O)COc2ccc(C34CC5CC(CC(C5)C3)C4)cc2)c1 [HIF-1α inhibitor]
- oxLDL-induced Unc5b mRNA in BMDM (BMDMs [2]; HIF-1α inhibitor): required HIF-1α activity
- Unc5b mRNA in response to low oxygen concentration, CoCl2 or DMOG (BMDMs [2]; pre-treated with HIF-1α inhibitor): no upregulation of Unc5b
- increase in Ntn1 mRNA under hypoxia, CoCl2, DMOG or oxLDL (BMDMs [2]; pretreatment with HIF-1α inhibitor): blocked
- protection from apoptosis (TUNEL) under hypoxic conditions (BMDMs [3]; growth-factor deprived BMDM, HIF-1α inhibitor): reversed
- oxLDL- and DMOG-induced increase in Ntn1 promoter activity ([4]; presence or absence of HIF-1α inhibitor): dependent on HIF-1α activity
- oxLDL-induced increase in Unc5b promoter activity [5]: abrogated

Compound: TNFα
- Ntn1 mRNA in BMDMs (BMDM [9]): increased Ntn1 mRNA

Compound: MCP-1: chemokine MCP-1 (R&D Systems)
- levels of activated Rac1 (Rac1): approximately 3 fold

Compound: COC(=O)CNC(=O)C(=O)OC [DMOG, dimethyloxalylglycine]
- Ntn1 promoter activity ([4]; HEK293 cells): potently induced

Compound: UNC5b-Fc: recombinant rat UNC5b-Fc chimera (cat #1006-UN, R&D Systems) to block the effects of netrin-1
- CoCl2 impairment of macrophage migration to MCP-1 (BMDM [10]): reversed this effect
- TUNEL and active caspase-3 staining under hypoxic conditions (BMDMs [3]; growth factor deprived macrophages, Unc5b-FC): increased TUNEL and active caspase-3 staining similar to normoxic controls
- inhibition of migration to CCL19 by conditioned medium from oxLDL-treated macrophages ([11]; addition of recombinant UNC5b-Fc): reversed
- inhibitory effect of netrin-1 on CCL19-induced migration [11]: reversed the inhibitory effect of netrin-1
- migration of J774-HIF cells (J774Hif macrophages): comparable to control J774 macrophages
- migration of palmitate-treated macrophages to CCL19 (peritoneal macrophages): restored

Compound: Cn1c(=O)c2nc(-c3ccccc3)[nH]c2n(C)c1=O [inhibitor of the A2B adenosine receptor]
- inhibitory effect of netrin-1 on CCL19-induced migration [11]: no change

The next lines start with results.

- oxLDL induction of netrin-1 promoter activity [1]: inhibited
Compound: Cc1ccc(S(=O)(=O)/C=C/C#N)cc1 [BAY 11-7082]

- palmitate-induced Unc5b-promoter luciferase activity [6]: inhibited, in part
- palmitate-induced Ntn1-promoter luciferase activity [7]: inhibited, in part
Compound: CC(C)(C)c1ccc(S(=O)(=O)/C=C/C#N)cc1 [BAY 11-7085]
- palmitate-induced secretion of netrin-1 by BMDM (BMDM [8]): inhibited, in part
